Experimental data: US20070255061A1, “5-Fluoro-, Chloro-and Cyano-Pyridin-2-Yl-Tetrazoles as Ligands of the Metabotropic Glutamate Receptor-5” (AstraZeneca AB, priority 2003, published 2007)
Converted amounts (≈) assume the structure as drawn.

Assays:
[1] = Aqueous solubility in 0.1 M phosphate buffer pH 7.4; assay type: physicochemical; conditions: for solubility at 24 h: 21 °C, aqueous buffer, thermodynamic from solid, 0.1 M phosphate buffer, pH 7.4, 20 to 22° C., read-out: aq. Solubility
Protocol: Duplicate of 1-2 mg of the test compound are incubated in 0.1 M phosphate buffer, pH 7.4, in 2 mL glass-vials on a plate bed shaker (IKA®-Schüttler MTS-4, IKA Labortechnik) at 300 rpm at a temperature of 20 to 22° C. for 24 hours. Non-dissolved material is centrifugated down from the saturated solution at 3000 rpm for 2×15 minutes at 22° C. (Multifuge® 3 S-R, Heraeus). The aqueous supernatant is transferred to glass-vials and aliquotes used for quantitative analysis using reversed HPLC with MS confirmation of compound identity. Quantification is performed by the UV-trace of the chromatogram against a calibration curve, 0-200 μM, of the test compound dissolved in DMSO at the wavelength of a positive inflection point of the UV spectrum. The reported values (aq. solubility) are the mean values of duplicate HPLC-analysis of two independent incubations.

[2] = Metabolic stability in pooled human liver microsomes; assay type: in vitro ADME; conditions: for h.mic. FH (fraction escaping hepatic clearance): 1 μM compound, 0.5 mg microsomal protein/mL, 37° C., calculated from halflife, fu=1; for human microsomal metabolic stability (h.mic. FH) compared to the unsubstituted analog (Z=H): incubated with human microsomes
Protocol: The compounds were incubated (at 1 μM) with characterized, pooled human liver microsomes (0.5 mg microsomal protein/mL incubation) at 37° C. in phosphate buffer (50 mM potassium phosphate, pH 7.4) The incubations were started by the addition of a cofactor (1 mM NADPH (Nicotinamide adenine dinucleotide phosphate in reduced form) and terminated by the addition of acetonitrile (1:1). The incubations were analyzed by LC/MS and a time curve for the disappearance of the parent compound was constructed. Control incubations without microsomes, or with acetonitrile addition before the addition of the cofactor, were used to check for non-enzymatic degradation/disappearance. […] The fraction escaping hepatic clearance, FH, given in %, was calculated from the hepatic clearance according to the following equation: [formula] Thus, the higher the FH, the more metabolically stable the compound. Solubility

[3] = target: T1, human mGluR5d (Homo sapiens, UniProt P41594); experiment: FLIPR analysis of [Ca2+]i mobilization, antagonist activity; assay type: cell-based; conditions: cells expressing human mGluR5d, read-out: IC50 mGluR5
T1 construct: expressed in transfected cells; GHEK cells stably expressing the receptor are named only for the IP3 assay
T1 sequence (P41594 21-942 isoform P41594-3 limits assumed): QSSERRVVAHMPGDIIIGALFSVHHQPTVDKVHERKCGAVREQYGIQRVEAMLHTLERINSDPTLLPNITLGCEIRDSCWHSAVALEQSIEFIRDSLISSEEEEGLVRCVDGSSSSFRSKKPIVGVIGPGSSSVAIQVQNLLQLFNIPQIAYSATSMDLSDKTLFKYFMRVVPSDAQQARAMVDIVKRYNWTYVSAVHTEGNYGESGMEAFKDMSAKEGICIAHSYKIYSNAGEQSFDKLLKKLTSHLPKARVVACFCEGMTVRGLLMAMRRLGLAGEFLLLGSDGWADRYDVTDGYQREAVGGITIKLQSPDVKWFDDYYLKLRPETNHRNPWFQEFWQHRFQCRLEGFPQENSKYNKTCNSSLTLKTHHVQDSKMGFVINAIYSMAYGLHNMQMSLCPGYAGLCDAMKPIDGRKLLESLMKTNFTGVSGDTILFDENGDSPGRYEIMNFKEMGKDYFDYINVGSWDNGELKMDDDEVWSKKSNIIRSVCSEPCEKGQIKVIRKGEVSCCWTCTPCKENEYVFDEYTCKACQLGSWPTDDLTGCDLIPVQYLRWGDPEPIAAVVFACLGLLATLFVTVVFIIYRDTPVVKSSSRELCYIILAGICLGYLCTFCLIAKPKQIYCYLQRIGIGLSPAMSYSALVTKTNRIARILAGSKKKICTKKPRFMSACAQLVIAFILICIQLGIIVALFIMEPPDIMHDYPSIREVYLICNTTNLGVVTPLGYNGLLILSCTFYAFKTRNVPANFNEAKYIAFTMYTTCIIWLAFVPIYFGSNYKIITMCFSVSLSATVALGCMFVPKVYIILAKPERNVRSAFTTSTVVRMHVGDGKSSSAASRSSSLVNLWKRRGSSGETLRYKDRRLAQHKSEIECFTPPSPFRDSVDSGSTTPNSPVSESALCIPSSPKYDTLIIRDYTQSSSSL

solubility at 24 h [1] [µM] | h.mic. FH (fraction escaping hepatic clearance) [2] [%] | increase in solubility compared to the corresponding bromo derivative (Z=Br) ([1]; aq. solubility) [fold] | IC50 [3] [nM] | Compound | human microsomal metabolic stability (h.mic. FH) compared to the unsubstituted analog (Z=H) [2]
0.2 (≈ 0.069 µg/mL) | 92 |  |  | N#Cc1cc(F)cc(-n2nnc(-c3ccc(Br)cn3)n2)c1 [3-[5-(5-bromopyridin-2-yl)-2H-tetrazol-2-yl]-5-fluorobenzonitrile] | significantly higher human metabolic stability
4.3 (≈ 1.22 µg/mL) | 71 | 22 |  | N#Cc1cc(F)cc(-n2nnc(-c3ccc(F)cn3)n2)c1 [3-Fluoro-5-[5-(5-fluoropyridin-2-yl)-2H-tetrazol-2-yl]benzonitrile] | significantly more stable
43 (≈ 11.4 µg/mL) | 10 |  | 12 | N#Cc1cc(F)cc(-n2nnc(-c3ccccn3)n2)c1 [3-fluoro-5-(5-pyridin-2-yl-2H-tetrazol-2-yl)benzonitrile] | 
